Experiment [1] has as its system human cancer cell lines PC3, U-373MG, BxPC3, LoVo, A549 and MCF-7. The experiment can be described thus: MTT test, effect on overall cell growth (mean of six cell lines, examples 27 to 45). It is filed as cell-based. The following applies: mean of six cell lines PC3, U-373MG, A549, MCF-7, 72 hours incubation, range of molar concentrations resulting in 50% inhibition of overall tumor cells growth. As to the method: (§1) MTT tests were performed in order to rapidly, i.e. within 5 days, measure the effect of azonafide derivatives of this invention on the overall cell growth. The test measures the number of metabolically active living cells that are able to transform the yellow product 3-(4,5-dimethylthiazol-2-yl)-2,5-diphenyl tetrazolium bromide (herein referred as MTT) into the blue product formazan dye by mitochondrial reduction. The amount of formazan obtained at the end of the experiment, measured by means of a spectrophotometer, is directly proportional to the number of living cells. Optical density determination thus enables a quantitative measurement of the effect of the investigated compounds as compared to the control condition (untreated cells) and/or to other reference compounds.
(§2) Height human cancer cell lines described in table 1 were used in the following MTT tests. These cell lines cover six histological cancer types, being prostate, glioma, pancreas, colon, lung and breast cancers. Cells were allowed to grow in 96-well micro-wells with a flat bottom with an amount of 100 μl of cell suspension per well with 1,000 to 4,000 cells/well depending on the cell type used. Each cell line was seeded in a well known MEM 5% serum culture medium.
(§3) The detailed experimental procedure was as following: after a 24-hour period of incubation at 37° C., the culture medium was replaced by 100 μl of fresh medium in which the compound to be tested was dissolved at the following molar concentrations: 10^−9 M, 5.10^−9 M, 10^−8 M, 5.10^−8 M, 10^−7 M, 5.10^−7 M, 10^−6 M, 5.10^−6 M and 10^−5 M. Each experiment was repeated 6 times.
(§4) After 72 hours of incubation at 37° C. with (experimental conditions) or without (control condition) the compound to be tested, the medium was replaced by 100 μl MTT dissolved in RPMI at a concentration of 1 mg/ml. The micro-wells were subsequently incubated during 3 hours at 37° C. and centrifuged at 400 g during 10 minutes. MTT was removed and formazan crystals formed were dissolved in 100 μl DMSO. The micro-wells were shaken for 5 minutes and read on a spectrophotometer at wavelengths of 570 nm (maximum formazan absorbance) and 630 nm (back-ground noise).
(§5) For each experimental condition, the mean optical density was calculated, as well as the percentage of remaining living cells in comparison with the control.
(§6) IC50 values for compounds of examples 3 to 26 were obtained on cell lines Hs683, U-373MG, HCT-15, LoVo, A549 and MCF-7 described in Table 1. IC50 values for compounds from examples 27 to 45 were obtained on cell lines PC3, U-373MG, BxPC3, LoVo, A549 and MCF-7 described in Table 1.
(In general: Tetrazolium dyes change colour on reduction, which living cells bring about.)

Experiment [2] deals with human cancer cell lines Hs683, U-373MG, HCT-15, LoVo, A549 and MCF-7. Kind of experiment: MTT test, effect on overall cell growth (mean of six cell lines, examples 3 to 26). The following applies: mean of six cell lines Hs683, U-373MG, A549, MCF-7, 72 hours incubation, range of molar concentrations resulting in 50% inhibition of overall tumor cells growth. The experiment is classed as cell-based. As to the method:
as §1, §2, §3, §4, §5, §6

For the next experiment, the system named is A549 (Lung cancer) cells. Kind of experiment: Effect on cell migration, A549. It is filed as cell-based. The note with it: Homo sapiens, 22 hours on the 25% of most motile cells, at 10^−8 M, p value in same cell, read-out: Maximum effects (cell migration). The procedure:
(§7) Cells of different cancer lines, i.e. U-373 MG (Glioma cancer), PC3 (prostate cancer and A549 (Lung cancer) were seeded on culture flask 48 hours before the migration experiment. On the test day, cells were treated with or without the azonafide derivatives mentioned in table 3 in closed Falcon dishes containing a buffered medium at a controlled temperature (37.0±0.1° C.) for 12 or 22 hours, as noted in the right column of table 3. The azonafide derivatives were used at three non-cytotoxic concentrations (10^−6 M, 10^−7, 10^−8 M). Migration of the cells was observed by means of a CCD-camera mounted on a phase-contrast microscope. Statistical analysis of the migration, with the non-parametric Mann-Whitney test, was established for 25% and 50% of the most motile cells and for the entire cell population.

For experiment [3], the system named is U-373 MG, PC-3 and/or A549 cancer cells. Kind of experiment: Effect on cell migration, summary of table 3. The experiment is classed as cell-based, human. The procedure:
as §7

Molecules are shown by their SMILES. Where a name gives a salt, the structure may show the parent alone. A value given as a limit tells only on which side of the number the result lay.

In experiment [1], `COc1ccc(NC(=S)Nc2cccc3cc4cccc5c4c(c23)C(=O)N(CCN(C)C)C5=O)cc1` [Example 34, 1-{2-[2-(dimethylamino)ethyl]-1,3-dioxo-2,3-dihydro-1H-dibenzo[de,h]isoquinolin-11-yl}-3-[4-methoxyphenyl]thiourea] came in with an IC50 of more than 10 µM.
`CN(C)CCN1C(=O)c2cccc3cc4cccc(NC(=O)Oc5ccccc5)c4c(c23)C1=O` [Example 18, phenyl {2-[2-(dimethylamino)ethyl]-1,3-dioxo-2,3-dihydro-1H-dibenzo[de,h]isoquinolin-11-yl}carbamate] returned a concentration for half-maximal inhibition (IC50) in experiment [2] of more than 10 µM.
Turning to `CN(C)CCN1C(=O)c2cccc3cc4cccc(NC(=S)Nc5ccc6nsnc6c5)c4c(c23)C1=O` [Example 43, 1-(2,1,3-Benzothiadiazol-5-yl)-3-{2-[2-(dimethylamino)ethyl]-1,3-dioxo-2,3-dihydro-1H-dibenzo[de,h]isoquinolin-11-yl}thiourea], the IC50 in experiment [1] is 1 to 5 µM.
Still for that read-out and setting: next, `CN(C)CCN1C(=O)c2cccc3cc4cccc(NC(=O)OCCCCCl)c4c(c23)C1=O` [Example 28, 4-chlorobutyl {2-[2-(dimethylamino)ethyl]-1,3-dioxo-2,3-dihydro-1H-dibenzo[de,h]isoquinolin-11-yl}carbamate]: more than 10 µM; `CN(C)CCN1C(=O)c2cccc3cc4cccc(NC(=S)NCc5ccco5)c4c(c23)C1=O` [Example 40, 1-{2-[2-(dimethylamino)ethyl]-1,3-dioxo-2,3-dihydro-1H-dibenzo[de,h]isoquinolin-11-yl}-3-[2-furylmethyl]thiourea]: 1 to 5 µM; `COc1ccccc1NC(=S)Nc1cccc2cc3cccc4c3c(c12)C(=O)N(CCN(C)C)C4=O` [Example 37, 1-{2-[2-(dimethylamino)ethyl]-1,3-dioxo-2,3-dihydro-1H-dibenzo[de,h]isoquinolin-11-yl}-3-[2-methoxyphenyl]thiourea]: more than 10 µM.
Still for that read-out and setting: next, `CN(C)CCN1C(=O)c2cccc3cc4cccc(NC(=S)Nc5cccnc5)c4c(c23)C1=O` [Example 38, 1-{2-[2-(dimethylamino)ethyl]-1,3-dioxo-2,3-dihydro-1H-dibenzo[de,h]isoquinolin-11-yl}-3-[3-pyridyl]thiourea]: more than 10 µM.
In experiment [2], `CN(C)CCN1C(=O)c2cccc3cc4cccc(NC(=O)CC(=O)CCc5ccccc5)c4c(c23)C1=O` [Example 22, N-{2-[2-(dimethylamino)ethyl]-1,3-dioxo-2,3-dihydro-1H-dibenzo[de,h]isoquinolin-11-yl}-3-oxo-5-phenylpentanamide] returned an IC50 of more than 10 µM.
`CN(C)CCN1C(=O)c2cccc3cc4cccc(NC(=S)Nc5ccc(Br)cc5OC(F)(F)F)c4c(c23)C1=O` [Example 39, 1-{2-[2-(dimethylamino)ethyl]-1,3-dioxo-2,3-dihydro-1H-dibenzo[de,h]isoquinolin-11-yl}-3-[2-trifluoromethoxy4-bromophenyl]thiourea] returned a 50% inhibitory concentration (IC50) in experiment [1] of more than 10 µM.
`CCOC(=O)CCC(=O)CC(=O)Nc1cccc2cc3cccc4c3c(c12)C(=O)N(CCN(C)C)C4=O` [Example 23, ethyl 6-({2-[2-(dimethylamino)ethyl]-1,3-dioxo-2,3-dihydro-1H-dibenzo[de,h]isoquinolin-11-yl}amino)-4,6-dioxohexanoate] showed an IC50 in experiment [2] of more than 10 µM.
Take `CN(C)CCN1C(=O)c2cccc3cc4cccc(NC(=S)Nc5ccccc5OC(F)(F)F)c4c(c23)C1=O` [Example 45, 1-{2-[2-(dimethylamino)ethyl]-1,3-dioxo-2,3-dihydro-1H-dibenzo[de,h]isoquinolin-11-yl}-3-[2-(trifluoromethoxy)phenyl]thiourea]: in experiment [1], the IC50 was more than 10 µM.
On the same count and under the same terms, next, `CCNC(=S)Nc1cccc2cc3cccc4c3c(c12)C(=O)N(CCN(C)C)C4=O` [Example 35, 1-{2-[2-(dimethylamino)ethyl]-1,3-dioxo-2,3-dihydro-1H-dibenzo[de,h]isoquinolin-11-yl}-3-[ethyl]thiourea]: more than 10 µM.
Compound `CCCCCCCCCC(=O)CC(=O)Nc1cccc2cc3cccc4c3c(c12)C(=O)N(CCN(C)C)C4=O` [Example 20, N-{2-[2-(dimethylamino)ethyl]-1,3-dioxo-2,3-dihydro-1H-dibenzo[de,h]isoquinolin-11-yl}-3-oxododecanamide] had an IC50 in experiment [2] of more than 10 µM.
Turning to `C=CCNC(=S)Nc1cccc2cc3cccc4c3c(c12)C(=O)N(CCN(C)C)C4=O` [Example 36, 1-{2-[2-(dimethylamino)ethyl]-1,3-dioxo-2,3-dihydro-1H-dibenzo[de,h]isoquinolin-11-yl}-3-[allyl]thiourea], the IC50 in experiment [1] is more than 10 µM.
Same read-out and setting: next, `CN(C)CCN1C(=O)c2cccc3cc4cccc(NC(=S)Nc5ccc(C(F)(F)F)cc5)c4c(c23)C1=O` [Example 41, 1-{2-[2-(dimethylamino)ethyl]-1,3-dioxo-2,3-dihydro-1H-dibenzo[de,h]isoquinolin-11-yl}-3-[4-trifluoromethylphenyl]thiourea]: 1 to 5 µM.
In experiment [2], `CN(C)CCN1C(=O)c2cccc3cc4c(NC(=O)NC(=O)c5ccccc5)cccc4c(c23)C1=O` [Example 16, N-({2-[2-(dimethylamino)ethyl]-1,3-dioxo-2,3-dihydro-1H-dibenzo[de,h]isoquinolin-8-yl}carbamoyl)benzamide hydrochloride] registered an IC50 of 1 to 5 µM.
With `CN(C)CCN1C(=O)c2cccc3cc4c(N)cccc4c(c23)C1=O` [Example 4, 8-amino-2-[2-(dimethylamino)ethyl]-1H-dibenzo[de,h]isoquinoline-1,3(2H)-dione, reference compound], the IC50 in experiment [2] lay in the range of 1 to 5 µM.
`CN(C)CCN1C(=O)c2cccc3cc4cccc(NC(=S)Nc5ccc(Br)cc5)c4c(c23)C1=O` [Example 30, 1-{2-[2-(dimethylamino)ethyl]-1,3-dioxo-2,3-dihydro-1H-dibenzo[de,h]isoquinolin-11-yl}-3-[4-bromophenyl]thiourea] showed an IC50 in experiment [1] of more than 10 µM.
In experiment [1], `CC(C)c1ccc(NC(=S)Nc2cccc3cc4cccc5c4c(c23)C(=O)N(CCN(C)C)C5=O)cc1` [Example 33, 1-{2-[2-(dimethylamino)ethyl]-1,3-dioxo-2,3-dihydro-1H-dibenzo[de,h]isoquinolin-11-yl}-3-[4-isopropylphenyl]thiourea] displayed an IC50 of more than 10 µM.
As for `C=CCOC(=O)Nc1cccc2cc3cccc4c3c(c12)C(=O)N(CCN(C)C)C4=O` [Example 26, allyl {2-[2-(dimethylamino)ethyl]-1,3-dioxo-2,3-dihydro-1H-dibenzo[de,h]isoquinolin-11-yl}carbamate], the Emax at 0.01 µM in the experiment with A549 (Lung cancer) cells is -29%. Also, the “migration level of cancer cells” value in experiment [3] (U-373 MG, PC-3 and/or A549 cancer cells at the non-cytotoxic concentrations of this study) is reported as “induced a decrease in the migration level”. In experiment [3] (comparison drawn from table 3), the “cell migration activity compared with the closest compounds known in the art” value is “significantly greater cell migration activity than the closest compounds known in the art, or similar cell migration activity at significantly lower concentrations”.
`COCCNC(=S)Nc1cccc2cc3cccc4c3c(c12)C(=O)N(CCN(C)C)C4=O` [Example 32, 1-{2-[2-(dimethylamino)ethyl]-1,3-dioxo-2,3-dihydro-1H-dibenzo[de,h]isoquinolin-11-yl}-3-[2-methoxyethyl]thiourea] had a 50% inhibitory concentration (IC50) in experiment [1] of 5 to 10 µM.

One may read the IC50 as the concentration that inhibits the measured activity by half.

These data come from US7741337B2, “Azonafide derivatives, methods for their production and pharmaceutical compositions therefrom” (Unibioscreen S.A., priority 2005, dated 2010).
